According to BindingDB's records for doi:10.1016/j.bmcl.2015.03.051 (Mayo Clinic, 2015):

How the values were obtained:
[1] = target: T1, Cholecystokinin receptor type A (Homo sapiens, UniProt P32238); experiment: Activity at CCK1R (unknown origin) expressed in CHO cells assessed as CCK EC50 measured as intracellular calcium responses at 100 nM (Rvb = 7 to 14 pM)
T1 sequence (P32238 whole entry): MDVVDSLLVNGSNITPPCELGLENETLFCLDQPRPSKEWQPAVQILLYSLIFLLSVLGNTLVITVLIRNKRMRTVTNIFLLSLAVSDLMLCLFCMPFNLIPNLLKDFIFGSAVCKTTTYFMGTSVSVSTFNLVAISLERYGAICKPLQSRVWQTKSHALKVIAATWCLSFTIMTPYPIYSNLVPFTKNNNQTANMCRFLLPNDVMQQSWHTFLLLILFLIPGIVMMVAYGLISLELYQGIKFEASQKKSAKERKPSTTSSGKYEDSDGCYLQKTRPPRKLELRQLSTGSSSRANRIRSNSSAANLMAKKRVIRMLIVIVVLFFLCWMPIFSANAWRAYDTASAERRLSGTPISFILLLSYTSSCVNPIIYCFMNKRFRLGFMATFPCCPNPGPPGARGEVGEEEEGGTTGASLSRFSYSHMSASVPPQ

[2] = target: T1, Cholecystokinin receptor type A; experiment: Activity at CCK1R (unknown origin) expressed in CHO cells assessed as CCK EC50 measured as intracellular calcium responses at 1000 nM (Rvb = 7 to 14 pM)
[3] = target: T1, Cholecystokinin receptor type A
[4] = target: T1, Cholecystokinin receptor type A; remark: listed apart in the source

Row | SMILES | EC50 [1] [nM] | EC50 [2] [nM] | IC50 [3] [nM] | IC50 [4] [nM]
1 | O=C(CN1C(=O)C(NC(=O)Nc2ccccc2)C(=O)N(c2ccccc2)c2ccccc21)Nc1ccccc1 (stereo unspecified) | 0.014 | 0.039 |  | 
2 | COc1ccc(N(C)C(=O)CN2C(=O)C(NC(=O)Nc3ccccc3)C(=O)N(c3ccccc3)c3ccccc32)cc1 (stereo unspecified) [2-[2,4-Dioxo-5-phenyl-3-(3-phenyl-ureido)-2,3,4,5-tetrahydro-benzo[b][1,4]diazepin-1-yl]-N-(4-methoxy-phenyl)-N-methyl-acetamide] | 0.051 | 0.120 | 14 | 25
